Patent publication US7319000B1, “Compositions and methods for eliciting immune or anti-infective responses” (priority 1992, dated 2008)

Legend:
BALB/c mice = assay: Anti-peptide antibody response (ELISA) in BALB/c mice immunized with peptide multimers; type: in vivo; settings: for Antipeptide Antibody Reactivity to Analogous Peptide: antibody raised in Balb/C mice, ELISA end point; for anti-peptide antibody response (in words): high molecular weight forms of the peptides
[1] = system: PLN cells from A SW × Balb/c F1 mice; assay: In vitro proliferation (3H-TdR) of PLN cells from immunized A.SW x BALB/c F1 mice; type: in vivo, A.SWXBALB/C F1 mice; set-up: key: −: cpm values are corrected and categorized according to unrelated antigen response in vitro.; •: Not determined.; +: cpm values are corrected and categorized according to unrelated antigen response in vitro.; ++: cpm values are corrected and categorized according to unrelated antigen response in vitro.; +++: cpm values are corrected and categorized according to unrelated antigen response in vitro.; ++++: cpm values are corrected and categorized according to unrelated antigen response in vitro; settings: for In Vitro Proliferation of PLN Cells from A SW × Balb/c F1, GP 160: in vitro antigen: GP 160; for In Vitro Proliferation of PLN Cells from A SW × Balb/c F1, Analogous Peptide: in vitro antigen: analogous peptide
[2] = system: PLN cells from B6C3F1 mice; assay: In vitro proliferation (3H-TdR) of PLN cells from immunized B6C3 F1 mice; type: in vivo; set-up: key to In Vitro Proliferation of PLN Cells from B6C3F1, Analogous Peptide / In Vitro Proliferation of PLN Cells from B6C3F1, GP 160: −: cpm values are corrected and categorized according to unrelated antigen response in vitro.; •: Not determined.; +: cpm values are corrected and categorized according to unrelated antigen response in vitro.; ++: cpm values are corrected and categorized according to unrelated antigen response in vitro.; +++: cpm values are corrected and categorized according to unrelated antigen response in vitro.; ++++: cpm values are corrected and categorized according to unrelated antigen response in vitro; settings: for In Vitro Proliferation of PLN Cells from B6C3F1, GP 160: in vitro antigen: GP 160; for In Vitro Proliferation of PLN Cells from B6C3F1, Analogous Peptide: in vitro antigen: analogous peptide

Row | Sequence | Antipeptide Antibody Reactivity to Analogous Peptide (BALB/c mice) | anti-peptide antibody response (in words) (BALB/c mice) | In Vitro Proliferation of PLN Cells from A SW × Balb/c F1, GP 160 [1] | In Vitro Proliferation of PLN Cells from A SW × Balb/c F1, Analogous Peptide [1] | In Vitro Proliferation of PLN Cells from B6C3F1, GP 160 [2] | In Vitro Proliferation of PLN Cells from B6C3F1, Analogous Peptide [2]
1 | AHKVWATHACV [Peptide 106] | ++ | high antibody titers | + | ++++ | + | +++
2 | CRIKQIINMWQGVGKAMYA [Peptide 65, gp160 aa 417-435; polymeric form of the T-helper cell peptide] | ++ | high antibody titers | ++ | ++++ | + | ++
3 | CVPTNPVPQEVV [Peptide 107] | + | high antibody titers | + | + | ++ | ++
4 | EQMHEDIISLWDQ [Peptide 110] | ++++ | high antibody titers | + | ++ | − | ++
5 | FEPIPIHYCAFPGF [Peptide 114] | ++++ | high antibody titers | + | ++ | − | ++
6 | KKFNGTGPCTN [Peptide 115] | ++ | high antibody titers |  |  | + | ++
7 | NNMVEQMHEDI [Peptide 109] | +++ | high antibody titers | + | • | • | ++
8 | SLKPCVKLTPLC [Peptide 112] | + | high antibody titers | + | + | + | +
9 | VLENVTENFNM [Peptide 108] | + | high antibody titers | − | + | + | +
10 | VQCTHGIRPVVSTQ [Peptide 117] | ++++ | high antibody titers |  |  | − | +++
